Experimental findings from PMC11055700 (Chemicke Zvesti, 2024) are described below.

One data set deals with T1, human PD-1 / human PD-L1 (Homo sapiens, UniProt Q15116+Q9NZQ7).
T1 construct: purchased Sino Biological
The experiment in a line: AlphaScreen PD-1-PD-L1 binding assay. To be noted: unrelated ligand-receptor pair. (In Alpha technology, singlet oxygen from a donor bead excites a nearby acceptor bead.)

For data set [1], the target named is T2, SARS-CoV-2 Spike-RBD (omicron) / ACE2 (Homo sapiens, UniProt Q9BYF1).
T2 construct: a SARS-CoV-2 RBD protein containing a C-terminal His tag; a full-length ACE2 peptide with a C-terminal Fc tag; purchased Sino Biological
The experiment in a line: biochemical. The format is binding.

Data set [2] has as its target T3, SARS-CoV-2 Spike-RBD (delta) / ACE2 (Homo sapiens, UniProt Q9BYF1).
T3 construct: a SARS-CoV-2 RBD protein containing a C-terminal His tag; a full-length ACE2 peptide with a C-terminal Fc tag; purchased Sino Biological
The experiment in a line: biochemical. The format is binding.

Data set [3] has as its target T4, SARS-CoV-2 Spike-RBD (ancestral, WT) / ACE2 (Homo sapiens, UniProt Q9BYF1).
T4 construct: a SARS-CoV-2 RBD protein containing a C-terminal His tag; a full-length ACE2 peptide with a C-terminal Fc tag; purchased Sino Biological
The experiment in a line: biochemical. The format is binding. As to conditions: IC50 Spike/ACE2.

Data set [4] deals with T5, SARS-CoV-2 Spike-RBD (lambda) / ACE2 (Homo sapiens, UniProt Q9BYF1).
T5 construct: a SARS-CoV-2 RBD protein containing a C-terminal His tag; a full-length ACE2 peptide with a C-terminal Fc tag; purchased Sino Biological
Put plainly: biochemical. The format is binding.

Data set [5] has as its target T6, SARS-CoV-2 Spike-RBD (beta) / ACE2 (Homo sapiens, UniProt Q9BYF1).
T6 construct: a SARS-CoV-2 RBD protein containing a C-terminal His tag; a full-length ACE2 peptide with a C-terminal Fc tag; purchased Sino Biological
Put plainly: biochemical. The format is binding.

The term melting point denotes the temperature, or range, at which the solid turns liquid.

Like-named read-outs stand apart in the source and are kept apart here.

T6 sequence (Q9BYF1 18-740): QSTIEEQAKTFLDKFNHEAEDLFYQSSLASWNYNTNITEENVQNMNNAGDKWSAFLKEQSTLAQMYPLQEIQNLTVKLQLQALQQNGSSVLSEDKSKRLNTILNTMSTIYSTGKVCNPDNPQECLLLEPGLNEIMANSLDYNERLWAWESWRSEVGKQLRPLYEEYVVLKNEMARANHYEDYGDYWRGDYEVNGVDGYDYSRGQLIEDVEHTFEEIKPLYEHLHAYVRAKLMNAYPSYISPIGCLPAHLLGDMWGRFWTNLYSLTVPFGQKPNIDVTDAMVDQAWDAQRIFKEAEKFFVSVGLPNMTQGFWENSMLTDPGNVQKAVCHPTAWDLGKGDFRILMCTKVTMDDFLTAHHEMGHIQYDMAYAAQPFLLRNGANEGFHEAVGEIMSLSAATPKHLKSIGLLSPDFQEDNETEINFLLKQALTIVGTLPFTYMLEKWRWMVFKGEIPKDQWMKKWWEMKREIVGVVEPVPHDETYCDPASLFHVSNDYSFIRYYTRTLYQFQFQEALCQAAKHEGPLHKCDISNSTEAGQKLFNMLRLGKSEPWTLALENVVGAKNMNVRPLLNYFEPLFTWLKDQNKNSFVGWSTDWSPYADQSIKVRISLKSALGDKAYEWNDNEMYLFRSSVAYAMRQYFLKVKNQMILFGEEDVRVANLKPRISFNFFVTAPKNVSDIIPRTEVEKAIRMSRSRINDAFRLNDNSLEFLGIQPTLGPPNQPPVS
T2 sequence (Q9BYF1 18-740, change not shown): as the sequence (Q9BYF1 18-740) above
T5 sequence (Q9BYF1 18-740): as above
T3 sequence (Q9BYF1 18-740): as above
T1 sequence (Q15116 25-167 limits assumed): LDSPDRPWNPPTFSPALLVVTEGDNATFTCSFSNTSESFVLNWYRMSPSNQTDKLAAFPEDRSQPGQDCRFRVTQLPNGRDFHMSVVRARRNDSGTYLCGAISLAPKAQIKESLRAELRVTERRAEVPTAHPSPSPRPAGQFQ
T1 sequence (Q9NZQ7 19-239 limits assumed): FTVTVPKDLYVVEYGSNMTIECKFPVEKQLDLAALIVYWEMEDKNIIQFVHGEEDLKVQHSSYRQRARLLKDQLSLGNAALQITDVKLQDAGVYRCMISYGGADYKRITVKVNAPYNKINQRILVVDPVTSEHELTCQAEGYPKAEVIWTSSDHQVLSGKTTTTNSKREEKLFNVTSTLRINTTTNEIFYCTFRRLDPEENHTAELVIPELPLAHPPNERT
T4 sequence (Q9BYF1 18-740): as the sequence (Q9BYF1 18-740) above

In the case of `O=C1Nc2ccc(Cl)cc2C1=NNc1ccc([N+](=O)[O-])cc1[N+](=O)[O-]` [H2L, 5-chloro-3-(2-(2,4-dinitrophenyl)hydrazono)indolin-2-one], the melting point is above 350 °C. Moreover, the IC50 on human PD-1 / human PD-L1 was 2060 nM. Besides, the IC50 in data set [1] is 615 nM. The IC50 in data set [2] is 464 nM. Moreover, the IC50 in data set [3] was found to be 260 nM. For the same molecule, the IC50 in data set [4] amounted to 628 nM. Further, in data set [5], the IC50 was 490 nM.
With REGN10933, the IC50 in data set [1] (read-out: IC50 spike RBD/ACE2 binding, Omicron RBD sequence) is above 700 nM; in data set [2] (read-out: IC50 spike RBD/ACE2 binding, Delta RBD sequence), 1.4 nM; in data set [4] (read-out: IC50 spike RBD/ACE2 binding, Lambda RBD sequence) it was 0.8 nM; in data set [5] (read-out: IC50 spike RBD/ACE2 binding, Beta RBD sequence), 90.9 nM. Besides, in data set [5], the “fold weaker against the beta RBD” value is recorded as ~ 70 fold.
